According to patent US9446039B2, “Aminoheteroaryl compounds as MTH1 inhibitors” (CEMM—FORSCHUNGSZENTRUM FÜR MOLEKULARE MEDIZIN GMBH, priority 2012, dated 2016):

Columns and labels:
Assay type in all cases: binding
[1] = biological target: T1, SW480 colon carcinoma cells lysate proteins (Homo sapiens, UniProt Q15293); details: PreyGene RCN1
T1 sequence (Q15293 30-331): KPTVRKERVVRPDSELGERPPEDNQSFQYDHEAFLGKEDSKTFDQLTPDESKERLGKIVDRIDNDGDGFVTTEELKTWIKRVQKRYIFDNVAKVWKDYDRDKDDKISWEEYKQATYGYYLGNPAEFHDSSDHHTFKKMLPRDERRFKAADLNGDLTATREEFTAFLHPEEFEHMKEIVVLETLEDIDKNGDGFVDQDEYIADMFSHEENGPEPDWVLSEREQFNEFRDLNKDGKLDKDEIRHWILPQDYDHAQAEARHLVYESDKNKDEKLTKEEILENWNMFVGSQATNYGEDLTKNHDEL

[2] = biological target: T2, SW480 colon carcinoma cells lysate proteins (Homo sapiens, UniProt Q9Y383); details: PreyGene LUC7L2
T2 sequence (Q9Y383 1-392): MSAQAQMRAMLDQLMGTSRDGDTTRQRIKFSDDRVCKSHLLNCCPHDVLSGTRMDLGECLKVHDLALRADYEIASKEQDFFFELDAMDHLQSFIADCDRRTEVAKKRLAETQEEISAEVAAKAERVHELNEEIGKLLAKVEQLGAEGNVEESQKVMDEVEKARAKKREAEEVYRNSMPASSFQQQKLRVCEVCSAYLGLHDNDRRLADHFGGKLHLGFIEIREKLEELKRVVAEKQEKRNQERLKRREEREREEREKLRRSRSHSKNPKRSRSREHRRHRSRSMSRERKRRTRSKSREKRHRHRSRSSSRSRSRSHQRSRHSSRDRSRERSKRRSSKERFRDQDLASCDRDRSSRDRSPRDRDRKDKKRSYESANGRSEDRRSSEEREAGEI

[3] = biological target: T3, SW480 colon carcinoma cells lysate proteins (Homo sapiens, UniProt P11586); details: PreyGene MTHFD1
T3 sequence (P11586 1-935): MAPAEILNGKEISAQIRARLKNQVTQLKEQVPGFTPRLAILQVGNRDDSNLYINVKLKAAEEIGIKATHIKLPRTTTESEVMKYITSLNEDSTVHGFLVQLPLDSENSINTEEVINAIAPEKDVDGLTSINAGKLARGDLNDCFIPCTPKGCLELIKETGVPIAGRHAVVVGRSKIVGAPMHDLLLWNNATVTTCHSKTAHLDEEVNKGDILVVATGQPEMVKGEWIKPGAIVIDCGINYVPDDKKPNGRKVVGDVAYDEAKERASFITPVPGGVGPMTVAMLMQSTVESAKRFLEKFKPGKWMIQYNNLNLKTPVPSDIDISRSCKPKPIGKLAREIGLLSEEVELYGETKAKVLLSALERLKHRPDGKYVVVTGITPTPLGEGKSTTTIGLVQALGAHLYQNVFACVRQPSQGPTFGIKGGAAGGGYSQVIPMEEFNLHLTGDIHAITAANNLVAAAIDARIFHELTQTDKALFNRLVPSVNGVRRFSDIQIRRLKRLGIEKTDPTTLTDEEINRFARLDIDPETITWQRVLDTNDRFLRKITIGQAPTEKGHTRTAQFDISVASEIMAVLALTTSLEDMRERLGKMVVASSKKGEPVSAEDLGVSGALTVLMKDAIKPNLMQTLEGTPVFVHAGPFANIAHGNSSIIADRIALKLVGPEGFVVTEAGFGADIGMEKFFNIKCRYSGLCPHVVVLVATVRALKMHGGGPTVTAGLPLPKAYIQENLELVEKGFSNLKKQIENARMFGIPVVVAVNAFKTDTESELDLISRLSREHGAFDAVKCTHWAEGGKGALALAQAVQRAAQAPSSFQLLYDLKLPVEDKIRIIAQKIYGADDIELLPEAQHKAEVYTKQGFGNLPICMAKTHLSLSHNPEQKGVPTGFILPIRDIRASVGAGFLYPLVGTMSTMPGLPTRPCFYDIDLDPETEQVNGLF

[4] = biological target: T4, SW480 colon carcinoma cells lysate proteins (Homo sapiens, UniProt P26639); details: PreyGene TARS
T4 sequence (P26639 1-723): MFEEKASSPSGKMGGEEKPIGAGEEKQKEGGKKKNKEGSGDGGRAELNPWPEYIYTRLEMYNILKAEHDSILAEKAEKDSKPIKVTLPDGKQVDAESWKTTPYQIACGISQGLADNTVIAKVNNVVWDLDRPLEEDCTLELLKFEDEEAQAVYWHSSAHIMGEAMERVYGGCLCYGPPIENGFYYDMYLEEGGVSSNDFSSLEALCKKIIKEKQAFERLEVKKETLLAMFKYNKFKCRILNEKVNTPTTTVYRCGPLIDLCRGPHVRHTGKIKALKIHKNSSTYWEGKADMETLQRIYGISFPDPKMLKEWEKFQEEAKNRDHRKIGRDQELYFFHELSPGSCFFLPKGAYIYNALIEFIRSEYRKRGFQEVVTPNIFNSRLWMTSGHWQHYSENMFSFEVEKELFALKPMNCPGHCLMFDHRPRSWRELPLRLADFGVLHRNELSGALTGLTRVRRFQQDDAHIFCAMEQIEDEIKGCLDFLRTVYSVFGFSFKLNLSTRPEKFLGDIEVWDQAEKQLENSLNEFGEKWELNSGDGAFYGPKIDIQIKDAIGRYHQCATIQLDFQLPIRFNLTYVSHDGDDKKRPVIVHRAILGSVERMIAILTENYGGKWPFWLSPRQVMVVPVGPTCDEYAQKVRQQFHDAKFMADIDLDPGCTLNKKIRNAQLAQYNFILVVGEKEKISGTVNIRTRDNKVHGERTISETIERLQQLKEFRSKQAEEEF

[5] = biological target: SW480 colon carcinoma cells lysate proteins (Homo sapiens, UniProt O15372); details: PreyGene EIF3H
Chain of SW480 colon carcinoma cells lysate proteins (Homo sapiens, UniProt O15372) (O15372 whole entry): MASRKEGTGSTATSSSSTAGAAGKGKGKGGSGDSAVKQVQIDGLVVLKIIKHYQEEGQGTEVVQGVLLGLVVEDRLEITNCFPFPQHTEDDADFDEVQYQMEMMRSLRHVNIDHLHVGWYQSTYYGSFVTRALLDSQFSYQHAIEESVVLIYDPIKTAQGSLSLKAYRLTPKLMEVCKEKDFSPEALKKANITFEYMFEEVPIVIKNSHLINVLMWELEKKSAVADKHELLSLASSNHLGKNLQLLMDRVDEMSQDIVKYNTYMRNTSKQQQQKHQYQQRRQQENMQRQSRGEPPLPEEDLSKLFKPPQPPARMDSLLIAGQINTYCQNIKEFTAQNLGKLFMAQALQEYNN

Compound: C[C@H](Oc1cc(-c2cnn(C3CCNCC3)c2)cnc1N)c1c(Cl)ccc(F)c1Cl [(5)-crizotinib]
- AvgP [1]: 0.4191
- SC.Exp. 1-1 [1]: 4
- SC.Exp. 1-2 [1]: 4
- SC.Exp. 2-1 [1]: 0
- SC.Exp. 2-2 [1]: 0
- Sum (SC.Exp.) [1]: 8
- AvgP [2]: 0.3775
- SC.Exp. 1-1 [2]: 3
- SC.Exp. 1-2 [2]: 3
- SC.Exp. 2-1 [2]: 0
- SC.Exp. 2-2 [2]: 0
- Sum (SC.Exp.) [2]: 6
- AvgP [3]: 0.2666
- SC.Exp. 1-1 [3]: 2
- SC.Exp. 1-2 [3]: 2
- SC.Exp. 2-1 [3]: 0
- SC.Exp. 2-2 [3]: 0
- Sum (SC.Exp.) [3]: 4
- AvgP [4]: 0.4614
- SC.Exp. 1-1 [4]: 5
- SC.Exp. 1-2 [4]: 4
- SC.Exp. 2-1 [4]: 0
- SC.Exp. 2-2 [4]: 0
- Sum (SC.Exp.) [4]: 9
- AvgP [5]: 0.2043
- SC.Exp. 1-1 [5]: 3
- SC.Exp. 1-2 [5]: 0
- SC.Exp. 2-1 [5]: 0
- SC.Exp. 2-2 [5]: 0
- Sum (SC.Exp.) [5]: 3
